# In the supplement of paper PMC10307832:
# Experiments:
# Experiment in all cases: relative viability (nuclei count vs DMSO), 5 days (fraction); higher = more cells survive
# SW 900 = test system: SW 900
# Outline: (§1)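 Five library-drug doses in √10 steps were combined with a fixed anchor-drug dose, or a single drug was given alone, by pin tool to lung cancer cell lines in 1536-well plates the day after seeding. Nuclei were stained and counted after 5 days. Relative viability is the nuclei count in treated wells over that in vehicle wells, taken as the median of duplicate plates.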
# NCI-H2085 = test system: NCI-H2085
# Outline: as §1
# NCI-H358 = test system: NCI-H358
# Outline: as §1
# NCI-H1944 = test system: NCI-H1944
# Outline: as §1
# LC-2-ad = test system: LC-2-ad
# Outline: as §1
# HOP-62 = test system: HOP-62
# Outline: as §1
# LU99A = test system: LU99A
# Outline: as §1
# UMC-11 = test system: UMC-11
# Outline: as §1
# NCI-H2009 = test system: NCI-H2009
# Outline: as §1
# NCI-H1666 = test system: NCI-H1666
# Outline: as §1
# NCI-H1793 = test system: NCI-H1793
# Outline: as §1
# A-427 = test system: A-427
# Outline: as §1
# LXF-289 = test system: LXF-289
# Outline: as §1
# NCI-H460 = test system: NCI-H460
# Outline: as §1
# EPLC-272H = test system: EPLC-272H
# Outline: as §1
# NCI-H2170 = test system: NCI-H2170
# Outline: as §1
# NCI-H1792 = test system: NCI-H1792
# Outline: as §1
# COR-L 105 = test system: COR-L 105
# Outline: as §1
# SK-LU-1 = test system: SK-LU-1
# Outline: as §1
# NCI-H1915 = test system: NCI-H1915
# Outline: as §1
structure (smiles),measurement,setting,value
Cc1sc2c(c1C)C(c1ccc(Cl)cc1)=N[C@@H](CC(=O)OC(C)(C)C)c1nnc(C)n1-2 [JQ1] + CCNC(=O)c1noc(-c2cc(C(C)C)c(O)cc2O)c1-c1ccc(CN2CCOCC2)cc1 [Luminespib] (partner 0.01 µM),relative viability,SW 900; first compound 0.04 µM,0.153
same,relative viability,SW 900; first compound 0.1265 µM,0.186
same,relative viability,SW 900; first compound 0.4 µM,0.169
same,relative viability,SW 900; first compound 1.265 µM,0.183
same,relative viability,SW 900; first compound 4 µM,0.177
same,relative viability,NCI-H2085; first compound 0.04 µM,0.387
same,relative viability,NCI-H2085; first compound 0.1265 µM,0.434
same,relative viability,NCI-H2085; first compound 0.4 µM,0.386
same,relative viability,NCI-H2085; first compound 1.265 µM,0.248
same,relative viability,NCI-H2085; first compound 4 µM,0.182
same,relative viability,NCI-H358; first compound 0.04 µM,0.305
same,relative viability,NCI-H358; first compound 0.1265 µM,0.398
same,relative viability,NCI-H358; first compound 0.4 µM,0.401
same,relative viability,NCI-H358; first compound 1.265 µM,0.385
same,relative viability,NCI-H358; first compound 4 µM,0.27
same,relative viability,NCI-H1944; first compound 0.04 µM,0.73
same,relative viability,NCI-H1944; first compound 0.1265 µM,0.632
same,relative viability,NCI-H1944; first compound 0.4 µM,0.451
same,relative viability,NCI-H1944; first compound 1.265 µM,0.37
same,relative viability,NCI-H1944; first compound 4 µM,0.353
same,relative viability,LC-2-ad; first compound 0.04 µM,0.892
same,relative viability,LC-2-ad; first compound 0.1265 µM,0.58
same,relative viability,LC-2-ad; first compound 0.4 µM,0.576
same,relative viability,LC-2-ad; first compound 1.265 µM,0.395
same,relative viability,LC-2-ad; first compound 4 µM,0.331
same,relative viability,HOP-62; first compound 0.04 µM,0.867
same,relative viability,HOP-62; first compound 0.1265 µM,0.824
same,relative viability,HOP-62; first compound 0.4 µM,0.477
same,relative viability,HOP-62; first compound 1.265 µM,0.309
same,relative viability,HOP-62; first compound 4 µM,0.128
same,relative viability,LU99A; first compound 0.04 µM,0.285
same,relative viability,LU99A; first compound 0.1265 µM,0.246
same,relative viability,LU99A; first compound 0.4 µM,0.266
same,relative viability,LU99A; first compound 1.265 µM,0.173
same,relative viability,LU99A; first compound 4 µM,0.179
same,relative viability,UMC-11; first compound 0.04 µM,0.865
same,relative viability,UMC-11; first compound 0.1265 µM,0.83
same,relative viability,UMC-11; first compound 0.4 µM,0.336
same,relative viability,UMC-11; first compound 1.265 µM,0.278
same,relative viability,UMC-11; first compound 4 µM,0.219
same,relative viability,NCI-H2009; first compound 0.04 µM,0.971
same,relative viability,NCI-H2009; first compound 0.1265 µM,0.657
same,relative viability,NCI-H2009; first compound 0.4 µM,0.878
same,relative viability,NCI-H2009; first compound 1.265 µM,0.295
same,relative viability,NCI-H2009; first compound 4 µM,0.298
same,relative viability,NCI-H1666; first compound 0.04 µM,1.03
same,relative viability,NCI-H1666; first compound 0.1265 µM,0.916
same,relative viability,NCI-H1666; first compound 0.4 µM,0.908
same,relative viability,NCI-H1666; first compound 1.265 µM,0.669
same,relative viability,NCI-H1666; first compound 4 µM,0.64
same,relative viability,NCI-H1793; first compound 0.04 µM,0.155
same,relative viability,NCI-H1793; first compound 0.1265 µM,0.209
same,relative viability,NCI-H1793; first compound 0.4 µM,0.197
same,relative viability,NCI-H1793; first compound 1.265 µM,0.318
same,relative viability,NCI-H1793; first compound 4 µM,0.253
same,relative viability,A-427; first compound 0.04 µM,0.795
same,relative viability,A-427; first compound 0.1265 µM,0.97
same,relative viability,A-427; first compound 0.4 µM,0.847
same,relative viability,A-427; first compound 1.265 µM,0.563
same,relative viability,A-427; first compound 4 µM,0.431
same,relative viability,LXF-289; first compound 0.04 µM,0.675
same,relative viability,LXF-289; first compound 0.1265 µM,0.601
same,relative viability,LXF-289; first compound 0.4 µM,0.597
same,relative viability,LXF-289; first compound 1.265 µM,0.495
same,relative viability,LXF-289; first compound 4 µM,0.541
same,relative viability,NCI-H460; first compound 0.04 µM,0.031
same,relative viability,NCI-H460; first compound 0.1265 µM,0.0279
same,relative viability,NCI-H460; first compound 0.4 µM,0.0618
same,relative viability,NCI-H460; first compound 1.265 µM,0.032
same,relative viability,NCI-H460; first compound 4 µM,0.0328
same,relative viability,EPLC-272H; first compound 0.04 µM,0.451
same,relative viability,EPLC-272H; first compound 0.1265 µM,0.332
same,relative viability,EPLC-272H; first compound 0.4 µM,0.238
same,relative viability,EPLC-272H; first compound 1.265 µM,0.179
same,relative viability,EPLC-272H; first compound 4 µM,0.189
same,relative viability,NCI-H2170; first compound 0.04 µM,0.743
same,relative viability,NCI-H2170; first compound 0.1265 µM,0.837
same,relative viability,NCI-H2170; first compound 0.4 µM,0.572
same,relative viability,NCI-H2170; first compound 1.265 µM,0.326
same,relative viability,NCI-H2170; first compound 4 µM,0.336
same,relative viability,NCI-H1792; first compound 0.04 µM,0.522
same,relative viability,NCI-H1792; first compound 0.1265 µM,0.437
same,relative viability,NCI-H1792; first compound 0.4 µM,0.383
same,relative viability,NCI-H1792; first compound 1.265 µM,0.201
same,relative viability,NCI-H1792; first compound 4 µM,0.314
same,relative viability,COR-L 105; first compound 0.04 µM,0.66
same,relative viability,COR-L 105; first compound 0.1265 µM,0.49
same,relative viability,COR-L 105; first compound 0.4 µM,0.369
same,relative viability,COR-L 105; first compound 1.265 µM,0.239
same,relative viability,COR-L 105; first compound 4 µM,0.206
same,relative viability,SK-LU-1; first compound 0.04 µM,0.199
same,relative viability,SK-LU-1; first compound 0.1265 µM,0.177
same,relative viability,SK-LU-1; first compound 0.4 µM,0.171
same,relative viability,SK-LU-1; first compound 1.265 µM,0.152
same,relative viability,SK-LU-1; first compound 4 µM,0.175
same,relative viability,NCI-H1915; first compound 0.04 µM,0.56
same,relative viability,NCI-H1915; first compound 0.1265 µM,0.668
same,relative viability,NCI-H1915; first compound 0.4 µM,0.364
same,relative viability,NCI-H1915; first compound 1.265 µM,0.32
same,relative viability,NCI-H1915; first compound 4 µM,0.186
